ChEMBL document CHEMBL3861999, “Investigation of C-5 alkynyl (alkynyloxy or hydroxymethyl) and/or N-3 propynyl substituted pyrimidine nucleoside analogs as a new class of antimicrobial agents” (Bioorg Med Chem, 2016)

Assays:
Type in all cases: functional
Settings in all cases: variant bovis BCG, 144 h, read-out: GI
[1] = tested on: Mycobacterium tuberculosis; test: Growth inhibition of Mycobacterium bovis BCG at 200 ug/ml after 6 days by microplate alamar blue assay
[2] = tested on: Mycobacterium tuberculosis; test: Growth inhibition of Mycobacterium bovis BCG at 1 ug/ml after 6 days by microplate alamar blue assay
[3] = tested on: Mycobacterium tuberculosis; test: Growth inhibition of Mycobacterium bovis BCG at 0.5 ug/ml after 6 days by microplate alamar blue assay

| SMILES | inhibition of growth at 200 µg/mL [1] | also measured |
| --- | --- | --- |
| C#CCOc1cn([C@@H]2O[C@H](CO)[C@@H](O)[C@H]2F)c(=O)[nH]c1=O | 98% |  |
| C#CCOc1cn([C@@H]2O[C@H](CO)[C@@H](O)[C@H]2F)c(=O)n(CC#C)c1=O | 34% |  |
| NNC(=O)c1ccncc1 [ISONIAZID] |  | inhibition of growth at 1 µg/mL [2]: 100% |
| CO[C@H]1/C=C/O[C@@]2(C)Oc3c(C)c(O)c4c(O)c(c(/C=N/N5CCN(C)CC5)c(O)c4c3C2=O)NC(=O)/C(C)=C\C=C\[C@H](C)[C@H](O)[C@@H](C)[C@@H](O)[C@@H](C)[C@H](OC(C)=O)[C@@H]1C [RIFAMPIN] |  | inhibition of growth at 0.5 µg/mL [3]: 100% |
